The test deals with IL-12 production in human PBMC or THP-1 cells. Briefly: Human in vitro assay: inhibition of IL-12 production in human PBMC or THP-1 cells (ELISA). It counts as cell-based. The note with it: THP-1, human PBMC or THP-1 cells, IFNγ plus LPS or SAC stimulation, representative in vitro data. The source says:
The biological activities of the compounds of the invention can be evaluated by a number of cell-based assays. One of such assays can be conducted using cells from human peripheral blood mononuclear cells (PBMC) or human monocytic cell line (THP-1). The cells are stimulated with a combination of human interferon-γ (IFNγ) and lipopolysaccharide or a combination of IFNγ and Staphylococcus aureus Cowan I in the presence of a test compound. The level of inhibition of IL-12 production can be measured by determining the amount of p70 by using a sandwich ELISA assay with anti-human IL-12 antibodies. IC50 of the test compound can then be determined. Specifically, PBMC or THP-1 cells are incubated with the test compound. Cell viability was assessed using the bioreduction of MTS [3-(4,5-dimethylthiazol-2-yl)-5-(3-carboxymethoxyphenyl)-2-(4-sulfophenyl)-2H-tetrazolium] (Promega, Madison, Wis.).
Reagents. Staphylococcus aureus Cowan I (SAC) was obtained from Calbiochem (La Jolla, Calif.), and lipopolysaccharide (LPS, Serratia marscencens) was obtained from Sigma (St Louis, Mo.). Human and mouse recombinant IFNγ were purchased from Boehringer Mannheim (Mannheim, Germany) and Pharmingen (San Diego, Calif.), respectively.
Human In Vitro Assay. Human PBMC were isolated by centrifugation using Ficoll-Paque (Pharmacia Biotech, Uppsala, Sweden) and prepared in RPMI medium supplemented with 10% fetal calf serum (FCS), 100 U/mL penicillin, and 100 μg/mL streptomycin. PBMC were plated in wells of a 96-well plate at a concentration of 5×10^5 cells/well, and primed by adding IFNγ (30 U/mL) for 22 h and stimulated by adding LPS (1 μg/mL), or by adding IFNγ (100 U/mL) and then stimulated by adding SAC (0.01%). A test pyrimidine compound was dissolved in DMSO, and added to wells of the 96-well plate. The final DMSO concentration was adjusted to 0.25% in all cultures, including the compound-free control. Human THP-1 cells were plated in wells, primed by adding IFNγ (100 U/mL) for 22 h and stimulated by adding SAC (0.025%) in the presence of different concentrations of the pyrimidine compound. Cell-free supernatants were taken 18 h later for measurement of cytokines. Cell viability was assessed using the bioreduction of MTS. Cell survival was estimated by determining the ratio of the absorbance in compound-treated groups versus compound-free control.
The supernatant was assayed for the amount of IL-12p40, IL-12p70, or IL-10 by using a sandwich ELISA with anti-human antibodies, i.e., a Human IL-12 p40 ELISA kit from R&D Systems (Berkeley, Calif.), and a Human IL-12 p70 or IL-10 ELISA kit from Endogen (Cambridge, Mass.). Assays were based on the manufacturer's instructions.
The biological activities of compounds were tested on human PBMC or THP-1 cells.
On the technique in general: An ELISA detects its analyte on a solid surface through an enzyme-linked reagent.

pIC50: −log10 of the molar value.

For orientation: pIC50 means −log10 of the IC50, conventionally taken in molar units. Take `Cc1[nH]c2ccc(NC(=O)c3cc(NCCN4CCOCC4)nc(N(C)C)n3)cc2c1C` [Compound 147, N-(2,3-dimethyl-1H-indol-5-yl)-2-(dimethylamino)-6-(2-morpholinoethylamino)pyrimidine-4-carboxamide]: the pIC50 was under 6.00.
The same measure for `Cc1cccc(/C=N/Nc2nc(CCCOC(=O)Nc3ccc([N+](=O)[O-])cc3)cc(N(C)C)n2)c1` [Compound 28, (4-Nitro-phenyl)-carbamic acid 3-{6-dimethylamino-2-[N′-(3-methyl-benzylidene)-hydrazino]-pyrimidin-4-yl}-propyl ester]: 5.85.
The same measure for `COc1nc(N/N=C/c2cn(C(C)=O)c3ccccc23)nc(N(C(C)C)C(C)C)n1` [Compound 5, 1-{3-[(4-Diisopropylamino-6-methoxy-[1,3,5]triazin-2-yl)-hydrazonomethyl]-indol-1-yl}-ethanone]: 4.92.
Consider `Cc1cccc(/C=N/Nc2nc(CCCO)cc(N(C)C)n2)c1` [Compound 27, 3-{6-Dimethylamino-2-[N′-(3-methyl-benzylidene)-hydrazino]-pyrimidin-4-yl}-propan-1-ol], for which the pIC50 is 5.05.

For the origin of these results see patent publication US7919487B2, “Heteroaryl compounds” (Synta Pharmaceuticals Corporation, priority 2004, dated 2011).
